Measured values from US9204630B2, “Capsule formulation” (Syngenta Participations AG, priority 2005, dated 2015).

Assay: Screen of EC formulations for substances that photoprotect emamectin benzoate
Type: physicochemical
Design: key: #1 represents no improvement; #3 represents those photoprotectants that conferred a significant improvement in photostability
Details: performance of the photostabiliser relative to the non-photostabilised EC; 2% w/w emamectin benzoate EC, photoprotectant to insecticide 1:1; deposits on glass irradiated in Suntest, HPLC-MS
Experimental: The photoprotectant to be screened was either dissolved or dispersed in a simple Solvesso 200 based EC formulation containing 2% w/w emamectin benzoate, 10% w/w Soprophor BSU and 3% w/w phenyl sulfonate calx. The weight ratio of photoprotectant to insecticide was 1:1.
The ECs were diluted in water to the typical field application rate of emamectin benzoate, 10 g ai/ha at a spray volume of 200 l/ha. 2 μl droplets were applied to clean glass microscope slides and allowed to dry prior to being irradiated in an Atlas XLS+ Suntest artificial sunlight simulator, which employs a filtered xenon light source providing a spectral energy distribution similar to natural outdoor exposure. After irradiation, deposits were removed from the glass slides by a solvent wash and quantified by high performance liquid chromatography (HPLC) with mass-spectrometric (MS) detection.

Compound | Screen Result
Nc1ccc(N=Nc2ccc([N+](=O)[O-])cc2)cc1 [Example 1G, 4-[(4-nitrophenyl)azo]-benzenamine] | 3
CC(C)(C)CC(C)(C)c1ccc([O-])c(Sc2cc(C(C)(C)CC(C)(C)C)ccc2[O-])c1.CCCCN.[Ni+2] [Example 1S, 2,2′-thiobis[4-t-octylphenolato]-beta-butylamine nickel (II)] | 3
Nc1c(S(=O)(=O)[O-])cc(Nc2ccccc2)c2c1C(=O)c1ccccc1C2=O.[Na+] [Example 1A, monosodium 1-amino-9,10-dihydro-9,10-dioxo-4-(phenylamino)-2-anthracenesulfonate] | 3
Cc1cc(S(=O)(=O)[O-])ccc1N=Nc1c(O)ccc2ccccc12.[Na+] [Example 1C, monosodium 4-[(2-hydroxy-1-naphthalenyl)azo]-3-methyl-benzenesulfonate] | 3
1-[[4-[(dimethylphenyl)azo]dimethylphenyl]azo]-2-naphthalenol [Example 1I] | 3
Cc1ccccc1N=Nc1cc(C)c(N=Nc2c(O)ccc3ccccc23)cc1C [Example 1H, 1-[[2,5-dimethyl-4-[(2-methylphenol)azo]phenyl]azo]-2-naphthalenol] | 3
Cc1ccccc1N=Nc1c(O)ccc2ccccc12 [Example 1J, 1-(ortho-tolylazo)-2-naphthol] | 3
O=[N+]([O-])c1ccc(N=Nc2ccc(Nc3ccccc3)cc2)cc1 [Example 1D, 4-[(4-nitrophenyl)azo]-N-phenyl-benzenamine] | 3
Oc1ccc2ccccc2c1N=Nc1ccc(N=Nc2ccccc2)cc1 [Example 1K] | 3
COc1ccc(C=C(C(=O)OC2CC(C)(C)N(C)C(C)(C)C2)C(=O)OC2CC(C)(C)N(C)C(C)(C)C2)cc1 [Example 1R, propanedioic acid, [(4-methoxy-phenyl)-methylene]-, bis(1,2,2,6,6-pentamethyl-4-piperidinyl)ester] | 3
CC1(C)Nc2cccc3c(N=Nc4ccc(N=Nc5ccccc5)c5ccccc45)ccc(c23)N1 [Example 1M, 2,3-dihydro-2,2-dimethyl-6-[[4-(phenylazo)-1-naphthalenyl]azo]-1H-perimidine] | 3
CC(C)Nc1ccc(NC(C)C)c2c1C(=O)c1ccccc1C2=O [Example 1B, 1,4-bis[(1-methylethyl)amino]-9,10-anthracenedione] | 3
Oc1ccc(N=Nc2ccc(N=Nc3ccccc3)c3ccccc23)cc1 [Example 1E, 4-[[4-(phenylazo)-1-naphthalenyl]azo]-phenol] | 3
CCN(CCC#N)c1ccc(N=Nc2ccc([N+](=O)[O-])cc2)cc1 [Example 1F, 3-[ethyl[4-[(4-nitrophenyl)azo]phenyl]amino]-propanenitrile] | 3
Oc1ccc2ccccc2c1N=Nc1ccccc1 [Example 1N, 1-(phenylazo)-2-naphthalenol] | 3
Cc1cc(N=Nc2ccc(N=Nc3c(O)ccc4ccccc34)c(C)c2)ccc1O [Example 1O, 1-[[2-methyl-4-[(2-methylphenol)azo]phenyl]azo]-2-naphthalenol] | 3
